Nc1cccc(Cl)c1C(=O)O
solubility (mole fraction)
Conditions | 278.15 K | 283.15 K | 288.15 K | 293.15 K | 298.15 K | 303.15 K | 308.15 K | 313.15 K | 318.15 K | 323.15 K
in NMP | 0.0744 | 0.0797 | 0.0873 | 0.0958 | 0.106 | 0.119 | 0.135 | 0.155 | 0.178 | 0.204
in acetonitrile | 0.00746 | 0.00991 | 0.0129 | 0.0166 | 0.0208 | 0.0259 | 0.0313 | 0.0377 | 0.045 | 0.0541
in cyclohexane | – | 4.1e-05 | 6e-05 | 8.7e-05 | 0.000115 | 0.000155 | 0.000205 | 0.000269 | 0.000344 | 0.000445
in ethanol | 0.0284 | 0.0346 | 0.0408 | 0.049 | 0.0584 | 0.0702 | 0.0831 | 0.1 | 0.119 | 0.141
in ethyl acetate | 0.0257 | 0.0303 | 0.036 | 0.0423 | 0.051 | 0.0612 | 0.0731 | 0.0867 | 0.103 | 0.122
in ethylene glycol | 0.0133 | 0.0175 | 0.0225 | 0.0283 | 0.0349 | 0.0423 | 0.0505 | 0.0601 | 0.071 | 0.0848
in isobutanol | 0.0106 | 0.0145 | 0.0189 | 0.0244 | 0.0308 | 0.0385 | 0.047 | 0.057 | 0.0677 | 0.0809
in isopropanol | 0.0195 | 0.0231 | 0.0276 | 0.0332 | 0.0399 | 0.0479 | 0.0571 | 0.0676 | 0.0819 | 0.0982
in n-butanol | 0.0172 | 0.0208 | 0.0248 | 0.03 | 0.0365 | 0.0439 | 0.053 | 0.0642 | 0.0786 | 0.0958
in n-heptanol | 0.00987 | 0.0135 | 0.0177 | 0.0225 | 0.0276 | 0.0338 | 0.0414 | 0.0507 | 0.0625 | 0.0776
in n-octanol | 0.00855 | 0.0118 | 0.0154 | 0.0194 | 0.0241 | 0.0301 | 0.0376 | 0.0476 | 0.0606 | 0.0753
in n-propanol | 0.0203 | 0.0248 | 0.0299 | 0.0353 | 0.0416 | 0.0498 | 0.0592 | 0.0718 | 0.0859 | 0.103
in toluene | 0.00446 | 0.00515 | 0.00616 | 0.0075 | 0.00924 | 0.0112 | 0.0133 | 0.0156 | 0.0179 | 0.0207
in water | 0.000571 | 0.000674 | 0.000801 | 0.000965 | 0.00116 | 0.0014 | 0.00169 | 0.00203 | 0.00247 | 0.00297

Source: BigSolDB 2.1
